Where a SMILES comes first, the peptide text is derived from it. [ ]: non-standard residue; d: D form. The star is where a group is joined. OiPr = CC(C)O*; NHBu = CCCCN*
system: taste panel; test: Taste panel evaluation of blends with sodium saccharin for taste acceptability and sweetness intensity against aqueous sucrose standards; assay type: in vivo; settings: single components
Experimental: Blends of L-aspartyl-D-serine N-(2,2,4,4-tetra- methylthietan-3-yl)amide and sodium saccharin were prepared and evaluated for taste acceptability and sweetness intensity by comparison with aqueous sucrose standards.
The % synergy was calculated according to the following formula [formula] where A is the actual sweetness determined by averaging the taste panel results and T is the theoretical sweetness determined from the composition of the mixtures by weight e.g., for the 1:4 blend the theoretical sweetness is (1/5 x 1200) + (4/5 x 300) = 480.

| SMILES | Sweetness potency factors used to calculate the theoretical sweetness of the blends [x sucrose] |
| --- | --- |
| CC1(C)SC(C)(C)C1NC(=O)[C@@H](CO)NC(=O)[C@@H](N)CC(=O)O [Example 3, L-Aspartyl-D-serine N-(2,2,4,4-tetramethylthietan-3-yl)amide] | 1200 |
| O=C1NS(=O)(=O)c2ccccc21.[Na] [sodium saccharin] | 300 |

system: not given; test: not given; settings: 5% sucrose standard; Ariyoshi et al.; cited from earlier work

| SMILES | times as sweet as a 5% sucrose standard [times] |
| --- | --- |
| CCCOC(=O)[C@@H](CO)NC(=O)[C@@H](N)CC(=O)O [L-aspartyl-D-serine n-propyl ester] | 320 |

same assay, conditions: prior-art values; cited from earlier work

| SMILES | Sweetness potency |
| --- | --- |
| C[C@H](COC(=O)C1CCC1)NC(=O)[C@@H](N)CC(=O)O | 220 x sucrose |
| C[C@@H](NC(=O)[C@@H](N)CC(=O)O)C(=O)NC1CCCCC1 [cyclohexyl] | 100 x sucrose |
| CCCCNC(=O)[C@@H](C)NC(=O)[C@@H](N)CC(=O)O [n-butvlamide] (H-Asp-[dA]-NHBu) | 125 x sucrose |
| CC1CCC1C(=O)OC[C@@H](C)NC(=O)[C@@H](N)CC(=O)O (some centres unmarked) | 160 x sucrose |
| CC(C)OC(=O)[C@@H](C)NC(=O)[C@@H](N)CC(=O)O [L-aspartyl-D-alanine isopropyl ester] (H-Asp-[dA]-OiPr) | up to 125 x sucrose |
| CC(C)CNC(=O)[C@@H](C)NC(=O)[C@@H](N)CC(=O)O [isobutyl] | 100 x sucrose |
| COC(=O)C(NC(=O)[C@@H](N)CC(=O)O)C(=O)OC1CCCCC1C (stereo partly drawn) [L-aspartylaminomalonic acid methyl 2-methylcyclohexyl diester] | 6600 x sucrose |
| CCC(C)NC(=O)[C@@H](C)NC(=O)[C@@H](N)CC(=O)O (some centres unmarked) [secondary butyl] | 100 x sucrose |
| C[C@H](COC(=O)C1CC1)NC(=O)[C@@H](N)CC(=O)O | 200 x sucrose |

system: expert taste panel; test: Sweetness potency by comparison of gustatory sweetness with a sucrose standard (expert taste panel); assay type: in vivo; settings: aqueous solutions compared with aqueous sucrose solutions of 7-9% by an expert taste panel
Experimental: The sweetness potency of the instant compounds was determined by comparison of their gustatory sweetnesses with sucrose. Aqueous solutions of the compound of formula (I) diluted to a suitable range of concentrations were compared with a sucrose standard by an expert taste panel. Comparisons were generally made with aqueous sucrose solutions of 7-9%, i.e., 7-9 g. per 100 ml. Higher sucrose concentrations have a distinctive mouthfeel which may influence results and lower sucrose concentration are not indicative of normal use situations. If, for example a 0.014% solution of the compound of formula (I) is judged to be equally as sweet as a 7% sucrose solution, then the sweetness potency of that compound is 7/0.014 = 500 x sucrose. All of the sweetness potency values stated herein for the compounds of the invention were determined by this method. At threshold concentrations (i.e., the lowest concentration at which sweetness is first noticed, which for sucrose is ordinarily at concentrations in the range of 2-3%), the potency of a sweetener, such as the compounds of the invention, is generally twice that observed by comparison of its gustatory sweetness with 7-9% solutions of sucrose.

| SMILES | Sweetness potency [x sucrose] |
| --- | --- |
| CC1(C)SC(C)(C)C1NC(=O)[C@@H](CO)NC(=O)[C@@H](N)CC(=O)O [Example 3, L-Aspartyl-D-serine N-(2,2,4,4-tetramethylthietan-3-yl)amide] | 1200 |
| COC[C@@H](NC(=O)[C@@H](N)CC(=O)O)C(=O)NC1C(C)(C)SC1(C)C [Example 7] | 320 |
| COC[C@@H](NC(=O)[C@@H](N)CC(=O)O)C(=O)NC(C1CC1)C1CC1 [Example 6, L-Aspartyl-D-O-methylserine N-(dicyclopropylcarbinyl)amide] | 85 |
| CC1CCCC(C)C1NC(=O)[C@@H](CO)NC(=O)[C@@H](N)CC(=O)O (mixture of isomers) [Example 9, L-Aspartyl-D-serine N-(dl-cis,trans-2,6-dimethylcyclohexyl)amide] | 200 |
| COC[C@@H](NC(=O)[C@@H](N)CC(=O)O)C(=O)NC1C(C)(C)S(=O)(=O)C1(C)C [Example 8, L-Aspartyl-D-O-methylserine N-(2,2,4,4-tetramethyl-1,1-dioxothietan-3-yl)amide] | 200 |
| CC(C)C(NC(=O)[C@@H](CO)NC(=O)[C@@H](N)CC(=O)O)C(C)C [Example 2, L-Aspartyl-D-serine N-(2,4-dimethyl-3-pentyl)amide] | 180 |
| CC1(C)C(NC(=O)[C@@H](CO)NC(=O)[C@@H](N)CC(=O)O)C(C)(C)S1(=O)=O [Example 4, L-Aspartyl-D-serine N-(2,2,4,4-tetamethyl-1,1-dioxothietan-3-yl)amide] | 850 |
| N[C@@H](CC(=O)O)C(=O)N[C@H](CO)C(=O)NC(C1CC1)C1CC1 [Example 1, L-Aspartyl-D-serine N-(dicyclopropylcarbinyl)amide] | 700 |

Source: patent EP0069811A1, “Branched amides of L-aspartyl-D-amino acid dipeptides and compositions thereof” (PFIZER INC., priority 1981, dated 1983)
